Measurements from patent US8765779B2, “Tricyclic derivatives and their pharmaceutical use and compositions” (Cephalon, Inc., priority 2009, dated 2014).
Structures can show the parent of a compound that is named as a salt.

molecular target: T1, human 5-HT6 receptor (Homo sapiens, UniProt P50406); experiment: Human 5-HT6 Receptor Binding Assay ([3H]LSD displacement, scintillation beads); settings: membranes of CHO-K1 cells with recombinant human 5-HT6, 4 nM [3H]LSD; Table 1, class symbols; read-out: h5-HT6 (Ki)
T1 construct: host or cells: CHO-K1 cells, stably transfected; membranes prepared in house
Method: Human 5-HT6 Receptor Binding Assay
Membranes were prepared from CHO—K1 cells stably transfected with the human 5-HT6 receptor (Euroscreen; ES-316-C). The cells were grown in Gibco Advanced DMEM-F12 (Cat#12634010) containing 2% dialyzed FBS (Hyclone Cat#SH30079.03). The cells were harvested in phosphate buffered saline (PBS) containing 0.1 mM EDTA and pelleted by centrifugation (1000×g), the supernatant was discarded and the pellets were stored at −80° C. prior to membrane preparation. Membranes were prepared as previously described (J Bio Chem. 1992, 267 (14) 9844-51). Briefly, frozen cell pellet was resuspended in a lysis buffer containing 5 mM Tris-HCl (pH 7.5), 5 mM EDTA and 1 complete EDTA-free protease inhibitor tablet (Roche Applied Science, Indianapolis, Ind.) per 50 mL buffer, and homogenized with a tissue homogenizer. The cell lysate was then centrifuged at 40,000×g for 30 min at 4° C. to collect the membranes. The membrane pellets were washed in membrane buffer (50 mM Tris-HCl (pH 7.5), 0.6 mM EDTA, 5 mM MgCl2, 1 complete EDTA-free protease inhibitor tablet per 50 mL buffer) using a tissue homogenizer. The membranes were centrifuged at 40,000×g for 30 min at 4° C. and the pellets were resuspended in membrane buffer containing 250 mM sucrose, and protein concentration was determined using the Coomassie Plus kit (Pierce Biotechnology, Rockford, Ill.).
Membranes prepared from cells expressing recombinant human 5-HT6 receptor (h5-HT6) were resuspended in assay buffer containing 50 mM Tris HCl, (pH7.4), 4 mM CaCl2, 10 μg/mL saponin, and 0.1% (w/v) ascorbic acid. Membranes were preincubated using 1.75 μg membrane protein and 0.25 mg FlashBlue scintillation beads (PerkinElmer catalogue #FB001) per well at 4° for 30 min. […] Test compounds or assay controls for total and non-specific binding were diluted in DMSO as 100× solutions and serially diluted by half log concentrations on a Perkin Elmer JANUS Automated Workstation. Serotonin (10 μM final concentration) was used to determine non-specific binding in the assay. Plates were read using the Microbeta Trilux 1450 LSC and luminescence counter. Data were analyzed by nonlinear […] using the dose-response equation (variable slope) to calculate IC50 in XLfit4 (ID Business Solutions Inc.): y=(Bottom+((Top−Bottom)/(1+((IC50/x)^Hill slope))))
Ki value was then calculated according to the Cheng-Prusoff method using the equation below (Cheng and Prusoff, 1973): Ki,app=IC50/(1+[radioligand]/Kd))

T1 sequence (P50406 whole entry): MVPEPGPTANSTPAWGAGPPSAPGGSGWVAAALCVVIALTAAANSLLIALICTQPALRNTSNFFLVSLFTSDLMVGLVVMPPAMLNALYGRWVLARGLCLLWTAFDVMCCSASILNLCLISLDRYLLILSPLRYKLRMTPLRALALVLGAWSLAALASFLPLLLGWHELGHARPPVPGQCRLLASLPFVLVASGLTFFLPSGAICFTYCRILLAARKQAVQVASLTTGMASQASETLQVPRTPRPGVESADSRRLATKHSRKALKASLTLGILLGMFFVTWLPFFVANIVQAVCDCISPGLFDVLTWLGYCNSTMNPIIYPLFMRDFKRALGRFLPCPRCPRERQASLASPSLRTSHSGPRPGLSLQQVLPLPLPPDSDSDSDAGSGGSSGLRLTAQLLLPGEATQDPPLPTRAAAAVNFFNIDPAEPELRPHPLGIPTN

Ki [µM] | Compound
< 0.5 | O=S(=O)(c1ccccc1)c1ccc2c3c(oc2c1)C1(CCCOC1)NCC3 (single isomer, unassigned) [Example 543, 7-(Phenylsulfonyl)-3,4,5′,6′-tetrahydro-2H,4′H-spiro[1-benzofuro[2,3-c]pyridine-1,3′-pyran]hydrochloride]
< 0.5 | O=S(=O)(c1cccc(F)c1)c1ccc2oc3c(c2c1)CCN1CCC31 (stereo not shown) [Example 619]
< 0.5 | O=S(=O)(c1ccc(Cl)c(Cl)c1)c1ccc2c3c(oc2c1)CNCC3 [Example 197, 7-[(3,4-dichlorophenyl)sulfonyl]-1,2,3,4-tetrahydro[1]benzofuro[2,3-c]pyridine]
< 0.5 | O=S(=O)(c1cccc(Br)c1)c1ccc2c(c1)OC1CNCCC21 (stereo not shown) [Example 133]
< 0.5 | CC1OCCC12NCCc1c2oc2cc(S(=O)(=O)c3cccc(F)c3)ccc12 (single isomer, unassigned) [Example 56, 7-[(3-Fluorophenyl)sulfonyl]-2′-methyl-3,4,4′,5′-tetrahydro-2H-spiro[1-benzofuro[2,3-c]pyridine-1,3′-furan]]
< 0.5 | O=S(=O)(c1cccc(OCCn2cccc2)c1)c1ccc2c(c1)OC1CNCCC21 (stereo not shown) [Example 573]
> 1 | CN(C)C(=O)c1cccc(S(=O)(=O)c2ccc3c4c(oc3c2)CNCC4)c1 [Example 474, N,N-Dimethyl-3-(1,2,3,4-tetrahydro[1]benzofuro[2,3-c]pyridin-7-ylsulfonyl)benzamide hydrochloride]
0.5 to 1 | O=S(=O)(c1ccc2c(c1)OC1CNCCC21)c1cccc2c1CCO2 (stereo not shown) [Example 405]
< 0.5 | CC(C)N1CCC2c3ccc(S(=O)(=O)c4ccccc4)cc3OC2C1 (stereo not shown) [Example 608, 7-(phenylsulfonyl)-2-(propan-2-yl)-1,2,3,4,4a,9a-hexahydro[1]benzofuro[2,3-c]pyridine]
> 1 | O=S(=O)(Oc1ccc2c(c1)C1CCNCC1O2)c1ccc(C(F)(F)F)cc1 (stereo not shown) [Example 735]
> 1 | O=[N+]([O-])c1ccc(S(=O)(=O)c2ccc3oc4c(c3c2)CCNC4)cc1 [Example 253]
< 0.5 | CC1(C)NCCc2c1oc1cc(S(=O)(=O)c3cncc(F)c3)ccc21 [Example 381]
< 0.5 | O=S(=O)(c1ccc(F)c(Cl)c1)c1ccc2c(c1)OC1CNCCC21 (stereo not shown) [Example 127]
< 0.5 | O=S(=O)(c1ccc2c(c1)OC1CNCCC21)c1cccc2c1OC(F)(F)O2 (stereo not shown) [Example 469]
> 1 | O=[N+]([O-])c1ccc(S(=O)(=O)c2cccc3c2OC2CNCCC32)cc1 (stereo not shown) [Example 190]
< 0.5 | O=S(=O)(c1ccc2c(c1)C1CCNCC1O2)c1cccc2ccccc12 (stereo not shown) [Example 170]
> 1 | COc1ccc(S(=O)(=O)Nc2ccc3c(c2)C2CCNCC2O3)cc1 (stereo not shown) [Example 821]
< 0.5 | O=S(=O)(c1cccc(Cl)c1)c1ccc2c3c(oc2c1)C(CCBr)NCC3 (stereo not shown) [Example 501, 1-(2-bromoethyl)-7-[(3-chlorophenyl)sulfonyl]-1,2,3,4-tetrahydro[1]benzofuro[2,3-c]pyridine]
0.5 to 1 | O=S(=O)(c1ccc2c(c1)OC1CNCCC21)c1cccnc1C(F)(F)F (stereo not shown) [Example 410]
< 0.5 | CC1(C)NCCc2c1oc1cc(S(=O)(=O)c3cccc(F)c3F)ccc21 [Example 365]
> 1 | CC(C)S(=O)(=O)c1ccc2oc3c(c2c1)CCNC3 [Example 281]
< 0.5 | O=S(=O)(Oc1ccc2c(c1)C1CCNCC1O2)c1csc2ccccc12 (stereo not shown) [Example 725]

Ki [µM] | Compound
> 1 | O=S(=O)(Nc1ccc(Cl)cc1Cl)c1ccc2c(c1)C1CCNCC1O2 (stereo not shown) [Example 844]
< 0.5 | O=S(=O)(c1ccccc1)c1ccc2c(c1)OC1CN(Cc3ccccc3)CCC21 (stereo not shown) [Example 611]
< 0.5 | COc1cncc(S(=O)(=O)c2ccc3c4c(oc3c2)CNCC4(C)C)c1 [Example 451]
< 0.5 | CC(=O)NCCC1NCCc2c1oc1cc(S(=O)(=O)c3cccc(Cl)c3)ccc21 (racemic) [Example 540, N-(2-{7-[(3-chlorophenyl)sulfonyl]-1,2,3,4-tetrahydro[1]benzofuro[2,3-c]pyridin-1-yl}ethyl)acetamide]
> 1 | COC(=O)c1cccc(S(=O)(=O)c2ccc3c(c2)OC2CNCCC32)c1 (stereo not shown) [Example 138]
< 0.5 | O=S(=O)(c1ccc2c(c1)OC1CNCCC21)c1cccc(Cl)c1F (stereo not shown) [Example 409]
< 0.5 | O=S(=O)(Oc1ccc2c(c1)OC1CNCCC21)c1ccccc1 (stereo not shown) [Example 636]
< 0.5 | CC1(C(F)F)NCCc2c1oc1cc(S(=O)(=O)c3cccc(F)c3F)ccc21 (single isomer, unassigned; enantiomer 1) [Example 471, 1-(Difluoromethyl)-7-[(2,3-difluorophenyl)sulfonyl]-1-methyl-1,2,3,4-tetrahydro[1]benzofuro[2,3-c]pyridine, enantiomer 1]
< 0.5 | CC(C)C(=O)NCC1(C)NCCc2c1oc1cc(S(=O)(=O)c3cccc(F)c3)ccc21 (stereo not shown) [Example 491, N-[7-(3-Fluoro-benzenesulfonyl)-1-methyl-1,2,3,4-tetrahydro-benzofuro[2,3-c]pyridin-1-ylmethyl]-isobutyramide]
< 0.5 | O=S(=O)(c1ccc2c3c(oc2c1)CNCC3)c1cccc2c1OCCO2 [Example 467]
< 0.5 | [O-][S+](c1ccc2c3c(oc2c1)CNCC3)c1ccccc1Cl (stereo not shown) [Example 229]
< 0.5 | O=S(=O)(c1ccc2ccccc2c1)c1cccc2c1OC1CNCCC21 (stereo not shown) [Example 189]
> 1 | [O-][S+](c1ccc2c(c1)OC1CNCCC21)c1cc(Cl)ccc1Cl (stereo not shown) [Example 135]
< 0.5 | O=S(=O)(c1cccc(F)c1)c1ccc2c3c(oc2c1)C1CCN1CC3 (stereo not shown) [Example 616, 8-[(3-Fluorophenyl)sulfonyl]-1,4,5,10b-tetrahydro-2H-azeto[1,2-a][1]benzofuro[2,3-c]pyridine]
< 0.5 | O=S(=O)(c1ccc2c(c1)OC1CNCCC21)c1ccccc1-c1ccccc1 (stereo not shown) [Example 153]
< 0.5 | CC(=O)N(C)CC1NCCc2c1oc1cc(S(=O)(=O)c3cccc(F)c3)ccc21 (racemic) [Example 537, N-({7-[(3-fluorophenyl)sulfonyl]-1,2,3,4-tetrahydro[1]benzofuro[2,3-c]pyridin-1-yl}methyl)-N-methylacetamide]
< 0.5 | Cc1ccc(S(=O)(=O)Oc2ccc3c(c2)OC2CNCCC32)cc1 (stereo not shown) [Example 642]
< 0.5 | COCC1NCCc2c1oc1cc(S(=O)(=O)c3cccc(F)c3)ccc21 (stereo not shown) [Example 498]
< 0.5 | O=S(=O)(c1ccc2c3c(oc2c1)CNCC3)c1cccc2ccccc12 [Example 202]
> 1 | CC(=O)N1CCC2c3ccc(S(=O)(=O)c4ccccc4)cc3OC2C1 (stereo not shown) [Example 613, 1-[7-(Phenylsulfonyl)-3,4,4a,9a-tetrahydro[1]benzofuro[2,3-c]pyridin-2(1H)-yl]ethanone]
< 0.5 | CC(C)C1NCCc2c1oc1cc(S(=O)(=O)c3cccc(F)c3)ccc21 (stereo not shown) [Example 495]

Compound | Ki [µM]
COc1cc(OC)cc(S(=O)(=O)c2ccc3c(c2)OC2CNCCC32C)c1 (stereo not shown) [Example 489] | < 0.5
CC(C)N1CCC2(C)c3cc(OS(=O)(=O)Cc4ccccc4)ccc3OC2C1 (stereo not shown) [Example 804] | > 1
CC(C)Oc1cccc(S(=O)(=O)c2ccc3c(c2)OC2CNCCC32C)c1 (racemic) [Example 12, 4a-methyl-7-{[3-(propan-2-yloxy)phenyl]sulfonyl}-1,2,3,4,4a,9a-hexahydro[1]benzofuro[2,3-c]pyridine] | < 0.5
CC12CCN(C3CCCCC3)CC1Oc1ccc(OS(=O)(=O)Cc3ccccc3)cc12 (stereo not shown) [Example 807] | > 1
O=S(=O)(c1ccc2c(c1)OC1CNCCC21)c1cccnc1Cl (stereo not shown) [Example 390] | < 0.5
O=S(=O)(Oc1ccc2c(c1)OC1CN(CCc3ccccc3)CCC21)c1ccc(Cl)cc1 (stereo not shown) [Example 813] | > 1
CN(C)C(=O)c1cccc(S(=O)(=O)c2ccc3c(c2)OC2CNCCC32C)c1 (stereo not shown) [Example 425] | > 1
COc1cc(OC)cc(S(=O)(=O)c2ccc3c(c2)OC2CNCCC32C)c1 (stereo not shown) [Example 490] | < 0.5
O=S(=O)(c1cncc(F)c1)c1ccc2c(c1)OC1CNCCC21 (stereo not shown) [Example 397] | > 1
Cc1oncc1S(=O)(=O)Oc1ccc2c(c1)OC1CNCCC21 (stereo not shown) [Example 640] | > 1
CC12CCN(CCc3ccccc3)CC1Oc1ccc(OS(=O)(=O)Cc3ccccc3)cc12 (stereo not shown) [Example 811] | > 1

same assay, conditions: membranes of CHO-K1 cells with recombinant human 5-HT6, 4 nM [3H]LSD; specific data; read-out: h5-HT6 (Ki)

Ki [µM] | Compound
0.0494 | CC(C)N1CCC2c3ccc(S(=O)(=O)c4ccccc4)cc3OC2C1 (stereo not shown) [Example 608, 7-(phenylsulfonyl)-2-(propan-2-yl)-1,2,3,4,4a,9a-hexahydro[1]benzofuro[2,3-c]pyridine]
